Data on one compound can be found in publication PMC11061149, “Protein mimetic 2D FAST rescues alpha synuclein aggregation mediated early and post disease Parkinson’s phenotypes” (Nature Communications, 2024).

Where “and” joins values, the source holds several entries; their conditions need not be identical. Identical values can stand only once.

Data set [1] has as its target T1, αS monomer-αS fibers interaction (Homo sapiens, UniProt P37840).
T1 construct: purchased rpeptide, Bogart, GA
The data set is described as follows: HSQC NMR of 15N-αS monomer with αS fibers with or without NS132. Type of data set: binding. As to conditions: 70 μM 15N-αS + αS fibers, equimolar NS132, 24 h. The procedure:
We also employed 2D NMR HSQC for atomic-level insights into fibers-catalyzed aggregation of αS and its inhibition by NS132. […] We have also shown that NS132 specifically interacts with the N-terminal residues of αS. […] We incubated preformed fibers of αS with 70 μM ^15N-^1H-uniformly labeled αS monomer and used HSQC NMR to characterize the kinetics of fibers-catalyzed aggregation of αS on a molecular level. […] Also, αS fibers interact specifically with four αS sequences on the N-terminus, including residues 3-23, 40-45, 49-59, and 75-84 (Fig. 4b,c). There was an induction of a secondary structure in the αS monomer, indicated by the spreading of the amide peaks toward the ^1H resonances (Fig. 4c, green). […] Even after 40 h, there were fewer and smaller changes in the volume intensity of the amide peaks of ^15N-^1H-uniformly labeled αS monomer in the presence of NS132 (Fig. 4f).
For the HSQC experiments titrating NS132 into ^15N αS, the same experimental conditions were used as above. Incrementally, NS132 was added to a single ^15N αS solution, mixed, kept at r.t. for 10 min and HSQC was recorded under the conditions stated above. For HSQC experiments containing pre-formed fibrils (PFF) of αS, 5.4 eq. of PFF solution (500 μM) was added to monomeric ^15N αS solution, and the spectra was recorded as previously stated.

Data set [2] concerns HEK cells expressing αSA53T-YFP. The data set is described as follows: MTT reduction assay of HEK cells treated with αS aggregated with or without ligand. Type of data set: cell-based, human. As for the experimental part: The aggregation of endogenous monomeric αS-A53T-YFP into fibers can be detected by the intracellular fluorescent puncta (Fig. 3a, + αS). A solution of 100 μM αS was aggregated in the absence and presence of NS132 at an equimolar ratio for four days. The resulting solutions of αS fibers (5 μM in monomeric αS, ±NS132) were introduced to HEK cells in the presence of Lipofectamine 3000 for 24 h. In contrast to the control (no fibers), we observed a significant number of fluorescent inclusions in the presence of αS fibers (Fig. 3a, white arrows, +αS), which was a consequence of the templating of endogenous monomeric αS-A53T-YFP by the exogenously added αS fibers. […] Moreover, we observed the colocalization of an adaptor protein, p62, in the aggresome of αS inclusions in HEK cells (Fig. 3b, +αS, red),[51]–[54]. […] We also quantified the inclusions (αS-A53T-YFP) using a ProteoStat dye-based high throughput 96-well plate reader-based assay recently developed in our lab[24]. […] The viability of HEK cells was measured using the (3-(4,5-dimethylthiazol-2-yl)-2,5-diphenyltetrazolium bromide) (MTT) reduction based assay.
This assay was performed based on a previous protocol with slight modifications. […] The crystals were dissolved with gentle shaking of the plate, and subsequently, the absorbance was measured at 570 nm using an Infinite M200 Pro Plate Reader (Tecan, Grŏdig, Austria). […]
In general terms: Tetrazolium assays rely on reduction of a dye to a coloured formazan, in cell work by metabolically active cells.

Data set [3] deals with UA196 worms. The data set is described as follows: ROS level in post-disease onset PD model of UA196 worms. Type of data set: in vivo, C. elegans. As for the experimental part: The UA196 worms were bleached, and the eggs were incubated on PLATE 1. On day two, the UA196 worms were transferred (using M9 buffer) on PLATE 2 (without ligand). On day five, 100 UA196 worms were used to determine the ROS level (as described earlier) prior to the treatment with ligands on day five. In tandem, ~200 worms were transferred to PLATE 3 (with ligand) using M9 buffer (10-20 µL) and the plate was incubated at 20 °C in the incubator. On day 8, 100 UA196 worms from PLATE 2 (without ligand) and PLATE 3 (with ligand) were used to determine the ROS level (as described earlier). For each condition, three biological replicates were performed, and 3 technical replicates were used for each biological replicate. […] (n = 3 independent experiments and each n consisted of 3 technical replicates).

`Cc1ccc(NC(=O)c2ccc(NC(=O)c3ccc([N+](=O)[O-])c(NCCc4c[nH]c5ccccc45)n3)c(NCC3CCCCC3)n2)c(OCC(=O)O)n1` [NS132]: the “change in the volume of the amide peaks of 15N-αS monomer with αS fibers, in words” value in data set [1] is recorded as “no significant change”. Further, the “relative viability of HEK cells, individual trials” value in data set [2] (HEK cells + Synuclein fibers aggregated with equimolar NS132, control = 1) was 0.8792 and 0.8235 and 0.899 and 0.8879 and 0.9679 and 0.8608 and 0.7821 and 0.8196 and 0.8279 and 0.7732 and 0.9011 and 0.8063 and 0.8583 and 0.8947 and 0.7357 and 0.8112. For the same compound, the “viability of HEK cells” value in data set [2] (αS aggregated solution with an equimolar ratio of NS132 (52% with αS alone)) is 85%. Further, in data set [3] (50 μM ligand on day five, ROS on day eight), the “ROS level in UA196 worms, post-disease model, in words” value is listed as “very effective in decreasing the ROS level”. In addition, the “ROS level (dye fluorescence), Average” value in data set [3] (UA196+NS132, Day 5 (same value as UA196 control)) is 1262.3; in data set [3] (UA196+NS132, Day 8), 733.721.
